For one data set, the system named is ER/NF-κB. The data set can be described thus: ER/NF-κB luciferase reporter in Ad5-wt-ERα infected HAECT-1 cells. The note with it: Homo sapiens, HAECT1, IL-1β; for Emax: read-out: ER/NFκB Efficacy (%)*; for IC50: read-out: ER/NFκB IC50. The format is cell-based, human. On the procedure:
(§1) After four hours, cells were washed with EBM-BSA and incubated overnight in the same medium. Following overnight incubation, cells were washed with EBM-BSA and infected for 2 hours with 6 mL of a 1:10 dilution of Ad5-3x(NFκB).Luc virus (Adenovirus luciferase expression vector driven by 3 repeats of the MHC NFκb site 5′ to the thymidine kinase promoter) in EBM-BSA. After two hours, cells were washed and incubated at 34° C. for 1 hour. […] Control (no ER infection) cells were processed as above without Ad5-wt-hERα virus infection.
(§2) ERα infected HAECT-1 cells or control cells were thawed, diluted 42× in warm EBM-BSA, plated into 96-well plates at 0.1 mL/well and incubated for 4 hours at 34° C. Test compounds were added to the cells as 2× stocks in EBM-BSA containing 2 ng/mL IL-1β (R&D Systems) and the 96-well plates were returned to the incubator (34° C.). After 15-20 hours, 100 μL aliquots of media were removed from the cells and assayed for IL-6 content using a BioSource human IL-6 ELISA Kit. Cells were subsequently washed with 300 μL of Dulbecco's phosphate buffered saline and lysed in 50 μL of Cell Culture Lysis Reagent (Promega). Luciferase was determined on a Wallac Victor^2 Luminometer (Gaithersburg, Md.) using 10 μL of lysate and mixing with 100 μL of Promega Luciferase Assay reagent. Creatine kinase was determined from the rate of increase in A340 following addition of 100 μL of CK assay reagent (Sigma, cat. No 47-10) to the remainder of the cell lysate.
(§3) For IC50 and EC50 calculations, mean IL-6, luciferase or CK values versus log10 of the compound concentration were fitted to a four parameter logistic equation. The IC50/EC50 value, ‘Hill slope’, upper and lower limits of the curve were iteratively estimated.

For another data set, the system named is creatine kinase. The data set can be described thus: Creatine kinase (CK) test procedure in Ad5-wt-ERα infected HAECT-1 cells. The format is cell-based, human. To be noted: Homo sapiens, HAECT1, Ad5-wt-ERα infected HAECT-1 cells; for Emax at 10 µM / Emax: read-out: Creatin Kinase Efficacy (%); for EC50: read-out: Creatin Kinase EC50. Here is the method: as §1, §2, §3

Molecules are shown by their SMILES.

What is called melting point is the temperature of the solid-liquid transition. `CC[C@@H](C)[C@H]1c2ccccc2-c2ccccc2N1S(=O)(=O)c1ccc(O)cc1` (relative stereo) [Example 22, 4-{[(S*)-6-[(R*)-1-methylpropyl]phenanthridin-5(6H)-yl]sulfonyl}phenol] registered a melting point of 115 to 118 °C. Besides, in the data set on ER/NF-κB, the Emax stood at 96% and the IC50 is 0.163 µM. Moreover, the Emax at 10 µM with creatine kinase was less than 35%.
What is called EC50 is the concentration that produces a half-maximal response. `C[C@H]1c2ccccc2-c2ccccc2N1S(=O)(=O)c1ccc(O)cc1` (single isomer, unassigned) [Example 2] gave a melting point of 176 to 178 °C. Moreover, in the data set with ER/NF-κB, the Emax was found to be 103% and the IC50 was determined as 0.04 µM. Also, in the data set with creatine kinase, the EC50 stood at 0.42 µM and the Emax worked out at 28%.
`C[C@@H]1c2ccccc2-c2ccccc2N1S(=O)(=O)c1ccc(O)cc1` (single isomer, unassigned) [Example 3]: the melting point was 181 to 183 °C. In the data set with ER/NF-κB, the Emax worked out at 97% and the IC50 worked out at 1.51 µM. For the same compound, in the data set with creatine kinase, the Emax at 10 µM is less than 35%.
Compound `O=S(=O)(c1ccc(O)cc1)N1c2ccccc2-c2ccccc2[C@H]1c1ccccc1` (single isomer, unassigned) [Example 10] had a melting point of 208 to 210 °C. In the data set with ER/NF-κB, the Emax is 95% and the IC50 was 0.061 µM. In addition, the Emax at 10 µM in the data set on creatine kinase was less than 35%.
As to `O=S(=O)(c1ccc(O)cc1)N1c2ccccc2-c2ccccc2[C@@H]1c1ccccc1` (single isomer, unassigned) [Example 11], the melting point was in the range of 210 to 212 °C. Besides, in the data set on ER/NF-κB, the Emax is 115% and the IC50 turned out to be 0.168 µM. In addition, in the data set with creatine kinase, the concentration for a half-maximal effect (EC50) was 0.117 µM and the Emax turned out to be 37%.
The compound `CC1c2ccccc2-c2ccccc2N1S(=O)(=O)c1ccc(O)cc1` (centres unmarked) [Example 1, 4-[(6-Methylphenanthridin-5(6H)-yl)sulfonyl]phenol] showed a melting point of 196 to 198 °C. Further, in the data set on ER/NF-κB, the Emax is 94% and the IC50 came out at 0.422 µM. Besides, in the data set on creatine kinase, the EC50 stood at 1 µM and the Emax was 39%.
For `CC1c2ccccc2-c2cc(Br)ccc2N1S(=O)(=O)c1ccc(O)cc1` (centres unmarked) [Example 4, 4-[(2-Bromo-6-methylphenanthridin-5(6H)-yl)sulfonyl]phenol], in that order: 201 to 203 °C, 101%, 0.054 µM, 0.048 µM and 23%.
`Cc1cc(S(=O)(=O)N2c3ccccc3-c3ccccc3C2C)ccc1O` (centres unmarked) [Example 5, 2-Methyl-4-[(6-methylphenanthridin-5(6H)-yl)sulfonyl]phenol]: the melting point was 186 to 188 °C. Further, in the data set with ER/NF-κB, the Emax worked out at 102% and the IC50 was found to be 0.433 µM. In addition, in the data set with creatine kinase, the Emax at 10 µM is less than 35%.
`Cc1cc(S(=O)(=O)N2c3ccc(Br)cc3-c3ccccc3C2C)ccc1O` (centres unmarked) [Example 6, 4-[(2-Bromo-6-methylphenanthridin-5(6H)-yl)sulfonyl]-2-methylphenol]: the melting point was 193 to 195 °C. For the same compound, in the data set on ER/NF-κB, the Emax was determined as 92% and the IC50 is 0.474 µM. Further, the Emax at 10 µM in the data set on creatine kinase was less than 35%.
For `CCCCC1c2ccccc2-c2ccccc2N1S(=O)(=O)c1ccc(O)cc1` (centres unmarked) [Example 7, 4-[(6-Butylphenanthridin-5(6H)-yl)sulfonyl]phenol], in that order: 149 to 151 °C, 7%, 0.47 µM and less than 35%.
The compound `CCCCC1c2ccccc2-c2cc(Br)ccc2N1S(=O)(=O)c1ccc(O)cc1` (centres unmarked) [Example 8, 4-[(2-Bromo-6-butylphenanthridin-5(6H)-yl)sulfonyl]phenol] came in with a melting point of 178 to 180 °C. In the data set with ER/NF-κB, the Emax turned out to be 89% and the IC50 was found to be 0.672 µM. Further, in the data set on creatine kinase, the Emax at 10 µM is less than 35%.
Consider `O=S(=O)(c1ccc(O)cc1)N1c2ccccc2-c2ccccc2C1c1ccccc1` (centres unmarked) [Example 9, 4-[(6-Phenylphenanthridin-5(6H)-yl)sulfonyl]phenol], for which the melting point was 217 to 220 °C. In the data set with ER/NF-κB, the Emax is 89% and the IC50 was 0.125 µM. Further, in the data set with creatine kinase, the EC50 stood at 0.455 µM and the Emax worked out at 26%.
`O=S(=O)(c1ccc(O)cc1)N1c2ccc(Br)cc2-c2ccccc2C1c1ccccc1` (centres unmarked) [Example 12, 4-[(2-Bromo-6-phenylphenanthridin-5(6H)-yl)sulfonyl]phenol]: the melting point was in the range of 262 to 265 °C. Further, in the data set with ER/NF-κB, the Emax is 93% and the IC50 is 0.682 µM. The Emax at 10 µM in the data set on creatine kinase was less than 35%.
Turning to `O=S(=O)(c1ccc(O)c(Br)c1)N1c2ccc(Br)cc2-c2ccccc2C1c1ccccc1` (centres unmarked) [Example 13, 2-Bromo-4-[(2-bromo-6-phenylphenanthridin-5(6H)-yl)sulfonyl]phenol], the melting point lay in the range of 237 to 239 °C. In addition, the IC50 with ER/NF-κB is greater than 10 µM. Besides, the Emax at 10 µM with creatine kinase is less than 35%.
`CC(C)(C)C1c2ccccc2-c2ccccc2N1S(=O)(=O)c1ccc(O)cc1` (centres unmarked) [Example 14, 4-[(6-tert-Butylphenanthridin-5(6H)-yl)sulfonyl]phenol] came in with a melting point of 192 to 194 °C. In the data set with ER/NF-κB, the Emax amounted to 105% and the IC50 is 0.108 µM. In the data set on creatine kinase, the 50% effective concentration (EC50) was 0.757 µM and the Emax turned out to be 50%.
`CC(C)(C)[C@@H]1c2ccccc2-c2ccccc2N1S(=O)(=O)c1ccc(O)cc1` [Example 15, 4-{[(R)-6-tert-Butylphenanthridin-5(6H)-yl]sulfonyl}phenol] returned a melting point of 187 to 189 °C. In the data set with ER/NF-κB, the Emax came out at 99% and the IC50 was 0.016 µM. The Emax at 10 µM in the data set with creatine kinase was less than 35%.
Regarding `CC(C)(C)[C@H]1c2ccccc2-c2ccccc2N1S(=O)(=O)c1ccc(O)cc1` [Example 16, 4-{[(S)-6-tert-Butylphenanthridin-5(6H)-yl]sulfonyl}phenol], the melting point is 187 to 189 °C. Moreover, in the data set on ER/NF-κB, the Emax is 89% and the IC50 was found to be 2.28 µM. In addition, in the data set with creatine kinase, the EC50 was 3.16 µM and the Emax is 15%.
For `CC(C)(C)C1c2ccccc2-c2cc(Br)ccc2N1S(=O)(=O)c1ccc(O)cc1` (centres unmarked) [Example 17, 4-[(2-Bromo-6-tert-butylphenanthridin-5(6H)-yl)sulfonyl]phenol], the melting point was 245 to 247 °C. Besides, in the data set on ER/NF-κB, the Emax came to 76% and the IC50 was found to be 0.058 µM. Moreover, the Emax at 10 µM in the data set with creatine kinase was less than 35%.
Turning to `CC1c2ccccc2-c2ccccc2N1S(=O)(=O)c1ccc(O)c(O)c1` (centres unmarked) [Example 23, 4-[(6-Methylphenanthridin-5(6H)-yl)sulfonyl]benzene-1,2-diol], the melting point is 163 to 165 °C. Besides, the IC50 in the data set with ER/NF-κB was greater than 10 µM. Besides, the Emax at 10 µM in the data set with creatine kinase is less than 35%.
For the compound `CCOC(=O)c1cc(S(=O)(=O)N2c3ccccc3-c3ccccc3C2C)ccc1OCC` (centres unmarked) [Example 25, Ethyl 2-ethoxy-5-[(6-methylphenanthridin-5(6H)-yl)sulfonyl]benzoate], the melting point was 113 to 115 °C.
`CC1c2ccccc2-c2ccccc2N1S(=O)(=O)c1ccc(O)c(CO)c1` (centres unmarked) [Example 26, 2-(Hydroxymethyl)-4-[(6-methylphenanthridin-5(6H)-yl)sulfonyl]phenol] gave a melting point of 182 to 184 °C. Besides, in the data set on ER/NF-κB, the IC50 is greater than 10 µM. Further, the Emax at 10 µM with creatine kinase is less than 35%.
Turning to `CCC1c2ccccc2-c2cc(-c3cccc(O)c3)ccc2N1S(=O)(=O)c1ccc(O)cc1` (centres unmarked) [Example 30, 3-{6-Ethyl-5-[(4-hydroxyphenyl)sulfonyl]-5,6-dihydrophenanthridine-2-yl}phenol], the melting point amounted to 105 °C. In addition, in the data set with ER/NF-κB, the Emax worked out at 76% and the IC50 turned out to be 0.053 µM. The Emax at 10 µM with creatine kinase is less than 35%.
Turning to `CCC1c2ccccc2-c2cc(-c3cccc4c3oc3ccccc34)ccc2N1S(=O)(=O)c1ccc(O)cc1` (centres unmarked) [Example 31, 4-[(2-Dibenzo[b,d]furan-4-yl-6-ethylphenanthridin-5(6H)-yl)sulfonyl]phenol], the melting point is 218 to 220 °C. Further, in the data set on ER/NF-κB, the Emax came out at 108% and the IC50 turned out to be 0.254 µM. Also, in the data set on creatine kinase, the Emax at 10 µM was less than 35%.
In turn, `CC1c2cc(Cl)ccc2-c2ccccc2N1S(=O)(=O)c1ccc(O)cc1` (centres unmarked) [Example 61, 4-[(8-Chloro-6-methylphenanthridin-5(6H)-yl)sulfonyl]phenol] showed a melting point of 176 to 178 °C.
`CCC1c2cc(F)ccc2-c2cc(-c3cccnc3)ccc2N1S(=O)(=O)c1ccc(O)cc1` (centres unmarked) [Example 127, 4-[(6-Ethyl-8-fluoro-2-pyridin-3-ylphenanthridin-5(6H)-yl)sulfonyl]phenol] gave a melting point of 195 to 200 °C.

(Values after US6894061B2, “Substituted dihydrophenanthridinesulfonamides” (Wyeth, priority 2002, dated 2005).)
